# Test results published in US20170144972A1, “METHODS OF LOWERING PROPROTEIN CONVERTASE SUBTILISIN/KEXIN TYPE 9 (PCSK9)” (Catabasis Pharmaceuticals, Inc., priority 2012, published 2017).
# Assays:
# PCSK9 = PCSK9 secretion assay in HepG2 cells (PCSK9 ELISA of supernatant); format: cell-based; settings: for lowering of PCSK9 (FIG. 1): 25 and 50 μM
# Description: HepG2 cells (from ATCC, Catalog no. HB-8065) were maintained in DMEM (Invitrogen) supplemented with 10% fetal bovine serum (Invitrogen). The day prior to the PCSK9 assay, cells are seeded in 96-well collagen coated plates at 25,000 cells/well.
# The compounds of the invention were stored at −20° C. until used. The test article compound was dissolved in 100% ethanol to a 50 mM stock solution. This was then diluted in FBS to a final concentration of 1 mM. This solution was placed in a sonicating water bath for 30 minutes. Subsequent dilutions were then made in FBS supplemented with an equivalent volume of ethanol and mixed by vortexing.
# HepG2 cells were seeded onto a collagen coated 96-well plate (Becton Dickinson, Catalog no. 35-4407) the day prior to the assay, as described above. The next day, the cell medium was removed, washed once with […] serum free DMEM to remove any residual PCSK9, and replaced with […] of serum free DMEM. Ten microliters of each compound concentration prepared in FBS was then added. Each concentration of compound was tested in triplicate. The compound was incubated with the cells overnight for 16 hours. Following this incubation, 10 µL of AlamarBlue was added to each well and cells incubated for another 2 hours. The plates were then removed and AlamarBlue fluorescence was measured (excitation, 550 nm and […]) to assess cell viability. Cell culture supernatant was then diluted […] 1×RDSP Calibrator Diluent and PCSK9 ELISA was then performed with […] of this diluted sample, as per the manufacturer's instructions. The ELISA was measured on a Victor X5 multilabel plate reader (PerkinElmer) at an absorbance of 450 nm with background correction measured at 550 nm (The PCSK9 Elisa kits can be purchased from R&D System, Catalog no. DPC900).
# Alternatively, an IC50 could also be obtained when this type of assay was carried out using at least 6 different concentrations of the test compounds. Table 1 lists the IC50 values for the compounds tested in this assay.
# ApoE*3 Leiden mice = test: Liver weight, plasma cholesterol and triglycerides of ApoE*3 Leiden mice, 16 weeks of treatment; format: in vivo; settings: I-8 in WTD at 7.5 g/kg
# Description: The same experimental design used in example 6 was used. Two treatment groups were used (n=15). The control animals were kept on a Western type diet (WTD) consisting of 1% cholesterol, 15% cacao butter, 40.5% sucrose, and 1% corn oil. For the treatment group, compound I-8 was administered in the above WTD at a ratio of 7.5 g/kg. Animals were maintained on the WTD or treatment group for 16 weeks. At the conclusion of the study, plasma cholesterol and triglyceride levels were recorded, as well as the weight of the liver. There was a significant decrease in plasma cholesterol, triglyceride levels as well as liver weight in the treatment group. After 16 weeks of treatment, the cholesterol level of the treatment group was 420 mg/dL, compared with a level of 750 mg/dL for the control group; the triglyceride level was 110 mg/dL, compared with a level of 160 mg/dL for the control group.
# APOE*3Leiden mice = test: Plasma cholesterol and triglycerides in ApoE3Leiden mice on Western type diet, 2 and 4 weeks of treatment; format: in vivo; settings: female APOE*3Leiden mice, WTD, I-8 0.75% w/w in diet, atorvastatin 0.0015% w/w in diet
# Description: The study was conducted using female APOE*3Leiden mice (groups of each n=10) and one untreated reference control group on chow (n=5). To induce dyslipidemia, a high cholesterol Western type diet containing 1% cholesterol, 15% cacao butter, 40.5% sucrose and 1% corn oil (WTD) was fed to the mice for a total experimental period of 20 weeks (of which 4 weeks are a run-in period).
# The dyslipidemic mice were grouped on the basis of plasma cholesterol at t=0 assayed in 4 h fasting blood. Mice with low cholesterol after the run-in period were excluded so that homogenous experimental groups were obtained. A group of reference mice (n=5) remained on a chow diet during the complete study period (normolipidemic reference mice).
# This mix was then added to the master mix (containing the rest of the ingredients) and mixed thoroughly. The diet was frozen to −20° C. On the subsequent day, the diet was broken into small pellets (approx 5 g per piece) and freeze dried, and stored in vacuum sealed bags (approx 500 g) at −20° C. until use. The diets were refreshed daily and unused diet was discarded.
# 1) Body weight at −4, 0, 2, 4 weeks 2) Food intake (g/day/mouse) at 0, 2, 4 weeks (per cage) 3) Plasma total cholesterol at −4, 0, 2, 4 weeks (individually) 4) Plasma triglycerides at −4, 0, 2, 4 weeks (individually) 5) Lipoprotein profiles at 0 (pool of all animals) and 4 weeks (cholesterol distribution over VLDL, LDL and HDL-sized particles, analysis on group level).
# EDTA plasma was collected in weeks −4, 0, 2 and 4 weeks.
# [1] = tested on: Zucker fa/fa Rat model of Dyslipidemia; test: Plasma triglyceride level of the Zucker fa/fa rat model of dyslipidemia; format: in vivo; settings: male Zucker rats, po qd, 10, 30, 100 and 300 mg/kg, blood sample day 4
# Description: Male Zucker rats (HsdHlr: Zucker-Lepr̂fa) between 8-10 weeks of age were purchased from Harlan and maintained on Purina Rodent Diet (5001) for the duration of the study. Animals were randomized and assigned to treatment arms based on body weight and plasma triglyceride (TG) levels (n=8). Inclusion criteria for the study include body weight >300 grams and fed TG levels in plasma >800 mg/dL. Dosing will be initiated on day 1 and continue through day 5. Dosing will be daily (qd) by oral gavage (po) for all treatment arms (Compound I-8 was administered orally at 4 different doses, 10, 30, 100 and 300 mg/kg; in addition, a combination of niacin/EPA in a ratio of 100/200 mg/kg was also employed). Body weights will be measured for all rats on days 1 through 5. On day 4, a blood sample (fed) will be collected from each rat, processed for plasma and stored at −80° C. Plasma triglyceride level was determined from commercial kits using standard protocols. […] Because compound I-8 was able to lower fed plasma triglyceride, it is useful to treat dyslipidemia as well as other diseases such as type I hyperlipoproteinemia and type 5 hyperlipoproteinemia.
compound,measurement,setting,value
"CC/C=C\C/C=C\C/C=C\C/C=C\C/C=C\CCCC(=O)NCCNC(=O)c1ccccc1 [II-1, N-(2-((5Z,8Z,11Z,14Z,17Z)-icosa-5,8,11,14,17-pentaenamido)ethyl)benzamide]",lowering of PCSK9 (FIG. 1),PCSK9; HepG2 cells,significant lowering of PCSK9
"CC(C)c1c(C(=O)Nc2ccccc2)c(-c2ccccc2)c(-c2ccc(F)cc2)n1CC[C@@H](O)C[C@@H](O)CC(=O)O [atorvastatin, reference compound]",PCSK9 secretion (FIG. 2),"PCSK9; HepG2 cells, 10 μM atorvastatin alone",increases PCSK9 secretion
"CC/C=C\C/C=C\C/C=C\C/C=C\C/C=C\CCCC(=O)NCCNC(C)=O [Compound A, (5Z,8Z,11Z,14Z,17Z)—N-(2-acetamidoethyl)icosa-5,8,11,14,17-pentaenamide, reference compound]",activity toward PCSK9 (FIG. 1),"PCSK9; HepG2 cells, highest tested concentration of 50 μM",essentially no activity
"CC/C=C\C/C=C\C/C=C\C/C=C\C/C=C\CCCC(=O)NCCNC(=O)c1cccnc1 [Compound I-8, N-(2-(5Z,8Z,11Z,14Z,17Z)-eicosa-5,8,11,14,17-pentaenamidoethyl)nicotinamide]",liver weight (FIG. 7),ApoE*3 Leiden mice,statistically significant drop
same,plasma cholesterol at t=2 weeks (FIG. 4),APOE*3Leiden mice; 2 weeks,statistically significant reduction
same,plasma cholesterol after 4 weeks of treatment (FIG. 5),APOE*3Leiden mice; 4 weeks,Comparable level of cholesterol reduction
same,plasma triglyceride levels after 4 weeks of treatment (FIG. 6),APOE*3Leiden mice; 4 weeks,significant reduction
same,fed plasma triglyceride level (FIG. 3),[1],dose dependent decrease
same,PCSK9 levels in HepG2 cells incubated with atorvastatin (FIG. 2),PCSK9; HepG2 cells incubated with 10 μM of atorvastatin along with test article,decrease PCSK9 levels in a dose response manner to well below the atorvastatin level induced levels
same,lowering of PCSK9 (FIG. 1),PCSK9; HepG2 cells,significant lowering of PCSK9
